This note sets out measurements from patent US20230414628A1, “METHODS FOR TREATING DISEASES MEDIATED BY GLUTATHIONE PEROXIDASE 4” (priority 2022, published 2023).

This experiment deals with RAG01 (derived from fibroblasts of a patient diagnosed with SSMD) fibroblasts. The experiment can be described thus: CellTiter-Glo concentration response in RAG01 fibroblasts. In kind it is cell-based, human. The note with it: Homo sapiens, Fibroblast; RAG01 cell line; 72 hours incubation; CellTiter-Glo; percentage effect normalized to vehicle control; 10-point CRC from 10 μM; read-out: EC50. The procedure: Compounds described herein were tested in three cell lines, RAG01 (derived from fibroblasts of a patient diagnosed with SSMD) fibroblasts, RAG02 (derived from fibroblasts of the patient's parent), and GM09503 (from supplier Corriell) (derived from a healthy donor) to each generate 10-point concentration response curves (CRC). The three cell lines were each thawed seven (7) days prior to seeding. The RAG01 cells were thawed in a medium supplemented with a-tocopherol. Cells were passaged four (4) days prior to the seeding. The α-tocopherol was removed from the RAG01 cells. Cells were then seeded at 900 cells per well in 384-well plates. Two replicates were prepared for two independent (replicate) experiments. All plates were then incubated with compounds described herein for 72 hours, prior to CellTiter-Glo assay. […] The assay was run using the CellTiter-Glo (Promega) following manufacturer's guidelines and luminescent spectrophotometric reading on PHERAstar FSX (BMG Labtech). A 0.1% dimethylsulfoxide (DMSO) was used as a blank (vehicle control); and a 1 μM Ferrostatin-1 was used as a control (CTRL).
The raw data was analyzed using Activity Base® software. The compounds were evaluated by efficacy (percentage effect) normalized to the vehicle control. The percentage effect (PE) was determined from the signal increase in comparison to the vehicle control according to the formula below: […]
The percentage effect values were then plotted against log concentration of the drug to generate a concentration response curve. The curves were fitted using a four-parameter fit, and curve tops and hillslopes were fixed where required and justified.
Take `CC1=C(C(=O)OC(C)C)C(c2cccc([N+](=O)[O-])c2)C(C(=O)OC2CN(C(c3ccccc3)c3ccccc3)C2)=C(N)N1` (stereo not drawn) [compound 1, azelnidipine]: the EC50 was 3120 nM. As for `COC(=O)C1=C(C)NC(C)=C(C(=O)OCCN2CCN(C(c3ccccc3)c3ccccc3)CC2)C1c1cccc([N+](=O)[O-])c1` (stereo not drawn) [compound 2, manidipine], the EC50 is 2900 nM.

In the case of `Cc1c(-c2ccc(O)cc2)n(Cc2ccc(OCCN3CCCCCC3)cc2)c2ccc(O)cc12` [compound 3, bazedoxifene], the EC50 is 240 nM. To `CN1CCN(c2ccc(C(=O)c3c(-c4ccc(O)cc4)sc4cc(O)ccc34)cc2)CC1` [compound 4, Y-134] belongs 430 nM. Under `O=C(c1ccc(OCCN2CCCCC2)cc1)c1c(-c2ccc(O)cc2)sc2cc(O)ccc12` [compound 5, raloxifene] stands 458 nM. As to `CCCCCS(=O)(=O)CCCCCCCCCCn1c(-c2ccc(O)cc2)c(C)c2cc(O)ccc21` [compound 6, ZK-164015], the EC50 was 1630 nM.

On to `Brc1cc2c(cc1[C@@H]1Nc3ccccc3[C@@H]3C=CC[C@@H]31)OCO2` [compound 7, G-15], for which the EC50 was 1660 nM. To `CC(C)=CCc1c(O)cc(O)c2c(=O)c(O)c(-c3ccc(C(F)(F)F)cc3)oc12` [compound 8, SNG1153] belongs 5510 nM. To `COc1ccc(Nc2ccn(-c3ccccc3)n2)cc1` [compound 9, FPL 62064] belongs 53 nM; to `O=C1c2ccccc2-n2c1nc1ccccc1c2=O` [compound 10, trypthanthrin], 180 nM; to `C=CCc1ccc(O)c(-c2ccc(O)c(CC=C)c2)c1` [compound 12, honokiol], 1210 nM.

On to `CC1(S(=O)(=O)O)CC(=O)c2ccccc2C1=O` (stereo not drawn) [compound 13], for which the EC50 came out at 1570 nM. Turning to `COC1=C(OC)C(=O)C(CCCCCCCCCCO)=C(C)C1=O` [compound 14, idebenone], the EC50 is 1600 nM.

On to `CC(c1cc2ccccc2s1)N(O)C(N)=O` (stereo not drawn) [compound 15, Zileuton], for which the EC50 was determined as 1870 nM.

Regarding `O=c1c(O)c(-c2ccc(O)cc2)oc2cc(O)cc(O)c12` [compound 16, kaempferol], the EC50 was 3210 nM. Under `CCNCc1cc(C(C)(C)C)c(O)c(C(C)(C)C)c1` [compound 17, LY 231617] stands 7360 nM; under `CC(=O)O[C@]1(C(C)=O)CC[C@H]2[C@@H]3CCC4=CC(=O)CCC4=C3[C@@H](c3ccc(N(C)C)cc3)C[C@@]21C` [compound 18, ulipristal acetate], 2340 nM; under `C#C[C@]1(O)CC[C@H]2[C@@H]3CCc4cc(O)ccc4[C@H]3CC[C@@]21C` [compound 19, ethinyl estradiol], 4480 nM. To `CC#C[C@]1(O)CC[C@H]2[C@@H]3CCC4=CC(=O)CCC4=C3[C@@H](c3ccc(N(C)C)cc3)C[C@@]21C` [compound 20, Mifepristone] belongs 2280 nM; to `Oc1ccc(/C=C/c2cc(O)cc(O)c2)cc1` [compound 22, resveratrol], 6810 nM; to `COc1cc(/C=C/c2ccc(O)cc2)cc(OC)c1` [compound 23, pterostilbene], 1610 nM.

Turning to `CC(Cc1ccc(O)c(O)c1)C(C)Cc1ccc(O)c(O)c1` (stereo not drawn) [compound 24, Nordihydroguaiaretic acid], the EC50 came out at 2490 nM. To `COc1cc(C[C@H](C)[C@H](C)Cc2ccc3c(c2)OCO3)ccc1O` [compound 25, macelignan] belongs 2860 nM.

`CC(=O)Oc1c(C)cc(OCC(O)CNC(C)C)c(C)c1C` (stereo not drawn) [compound 26, metipranolol]: the EC50 stood at 403 nM. To `CC(C)NCC(O)COc1cccc2[nH]c3ccccc3c12` (stereo not drawn) [compound 27, carazolol] belongs 3110 nM. In the case of `COc1ccccc1OCCNCC(O)COc1cccc2[nH]c3ccccc3c12` (stereo not drawn) [compound 28, carvedilol], the concentration for a half-maximal effect (EC50) amounted to 4910 nM. Under `CCc1cc2c(cc1CC)CC(NC[C@H](O)c1ccc(O)c3[nH]c(=O)ccc13)C2` [compound 29, indacaterol] stands 1390 nM.
